A short description of assay [1]: Rapid insulin sensitivity test (RIST) with IGF-1 instead of insulin. To be noted: diabetic/hypercortisolemic rats, chronic administration of antioxidant. It counts as in vivo, rat. On the procedure: (§1) All animal procedures were performed in accordance with the NIH Guidance for the Care and Use of Laboratory Animals. The current study used, respectively the GK and Dexamethasone-treated rats as models for diabetes and hypercortisolemia. Dexamethasone was administered subcutaneously at a dose of 2.5 μg/kg body weight in the morning (8:00 AM) and in the evening (8:00 PM) for a duration of four weeks before wounding and this form of therapy continued during the course of healing. […] Weight and age-matched female Wistar rats (Kuwait University breeding colony) served as the corresponding controls. All of the animals were maintained under standard conditions with 12 hours on/off light cycle, commercial diet, and water ad libitum. GK rats destined for wounding were initially matched with regard to body weight (e.g., 230 to 250 g), and plasma levels of glucose, free fatty acids and insulin. These indices are commonly used to reflect the severity of the diabetic state.
(§2) Animals used for IGF-1 sensitivity (n=6/group) and wound healing (n=8) studies were partitioned into five study groups including control, diabetic, hypercortisolemic, diabetic+EUK and hypercortisolemic+EUK. The EUK-134 was administered for duration of four weeks before wound induction and it continued during the course of healing.
IGF-1 sensitivity in control, diabetic and hypercortisolemic animals was determined using the rapid insulin sensitivity test (RIST) with IGF-1 (200 μg/kg BW) infused instead of insulin. The RIST index is the amount of glucose per kg body weight required to maintain euglycemia following a bolus of insulin (50 mU/kg BW).

Assay [2] concerns reactive oxygen species (ROS). Briefly: ROS generation in cultured fibroblasts (DCF-DA). It counts as cell-based, rat. On the procedure:
(§3) Primary dermal fibroblasts were obtained from dorsal skin of female Goto Kakizaki (GK, age 12-15 months) rats, a model for non-obese type 2 diabetes, and their Wistar control counterparts. After sterilization in povidine solution, rat skin was washed in sterile water and rinsed in 70% ethanol in PBS. Epidermis and dermis were separated following overnight incubation in 0.25% trypsine/EDTA at 4 C. Dermis was cut into small pieces and incubated in Dulbecco's modified Eagle medium (DMEM; Invitrogen) containing collagenase (250 U/ml; Sigma) for thirty min at 37 C in 5% CO2 with constant agitation. The sections were triturated vigorously to release fibroblasts, which were collected by centrifugation. The cell pellet was washed two times with PBS, re-suspended in complete medium (DMEM supplemented with 10% fetal calf serum, penicillin (100 U/ml), streptomycin (100 μg/ml)), 2 mM L-glutamine and 10 mM HEPES) and then cultured under a standard condition.
(§4) A hypercortisolemic state was mimicked by exposing control fibroblasts to dexamethasone (Dexa, Sigma) administered at 20 ng/ml every other day for a duration of 8 days. Similarly, the state of low-grade inflammation in fibroblasts was recapitulated experimentally by exposing these cells to TNF-α (4 ng/ml every day for 4 days). […] The concentration of IGF-1 (50 ng/ml, Peprotech) was determined by prior dose response experiment.
ROS generation in cultured fibroblasts was evaluated using dichloroflurescein-diacetate (DCF-DA, Molecular Probes), a probe that is oxidized to the fluorescent product DCF upon exposure to hydrogen peroxide, peroxynitrite, hydroxyl radical and nitric oxide. Its concentration serves as an indicator of the overall degree of intracellular oxidative stress.
Cells seeded in 96-well plates were incubated for thirty minutes at 37 C in serum free media containing 5 μM of DCF-DA. The plates were then washed twice with Krebs Ringer Buffer (KR) and the fluorescence readings were taken every 15 min for 1 hr at Ex=485 and Em=530. Subtracted background values were obtained from wells containing DCF-DA without cells. […]

Assay [3] deals with dermal fibroblasts. Briefly: BrdU cell proliferation assay in fibroblasts. It counts as cell-based, rat. The settings on record: fibroblasts with diabetic, inflammatory or hypercortisolemia phenotypes; ROS suppressors. On the procedure: as §3, §4
The proliferation and collagen synthesis of cultured fibroblasts were determined using, respectively the 5-bromo-2-deoxyuridine (BrdU) incorporation into DNA and a radiolabelled proline uptake assay.
Cells were seeded into 96-microtiter plates at a concentration of 1.5×10^4 and allowed to adhere overnight in DMEM supplemented with 10% FCS. After arrest by incubation in DMEM supplemented with 0.5% FCS for 24 hrs, cells were exposed to IGF-I (50 ng/ml) in DMEM containing […] 5-bromo-2-deoxyuridine (BrdUrd). Incorporation of BrdUrd into DNA was estimated using 5-bromo-2-deoxyuridine labeling and detection kit (Roche Applied Science) according to the manufacturer's instructions.

In assay [4] the test system is PI3K. Briefly: PI3K ELISA kinase assay on fibroblast lysates. To be noted: diabetic, TNF-α- or dexamethasone-exposed cells; co-exposure to EUK-134. It counts as cell-based, rat. On the procedure:
as §3
(§5) A hypercortisolemic state was mimicked by exposing control fibroblasts to dexamethasone (Dexa, Sigma) administered at 20 ng/ml every other day for a duration of 8 days. […] The concentration of IGF-1 (50 ng/ml, Peprotech) was determined by prior dose response experiment.
PI3K activity was measured using PI3K ELISA (Echelon Biosciences Inc). […]
(In general: An ELISA detects its analyte on a solid surface through an enzyme-linked reagent.)

Assay [5] has as its system protein-bound carbonyls. Briefly: Protein-bound carbonyl ELISA in fibroblasts. It counts as cell-based, rat. To be noted: diabetic, TNF-α- or dexamethasone-exposed cells; EUK-134. On the procedure: as §3, with “The cell pellet was washed two times with PBS, re-suspended in complete medium (DMEM supplemented with 10% fetal calf serum, penicillin (100 U/ml), streptomycin (100 μg/ml)), 2 mM L-glutamine and 10 mM HEPES) and then cultured under a standard condition.” left out
as §5
Protein-bound carbonyl levels in fibroblasts, a marker of cumulative oxidative stress, were determined using a procedure in which a sensitive ELISA-based assay was used to measure total protein-bound carbonyls using oxidized bovine serum albumin (BSA) as standard. […]

The subject of assay [6] is excisional wounds. As to the kind of experiment: Full-thickness excisional wound healing, 7 days. It counts as in vivo, rat. On the procedure:
as §1, §2
Animals derived from various experimental groups were anesthetized by ip, injection of 90 mg ketamine+10 mg xylazine/kg body weight, and their back skin was shaved, depilated with Nair and cleaned with 70% alcohol. Six bilateral full-thickness excisional wounds (8 mm in diameter) at equidistant from midline were created on the dorso-rostral back skin. Wounds were separated by a minimum of 1 cm of uninjured skin. […] The wound area was analyzed using Adobe PhotoShop (version 7.0; Adobe Systems) and the percentage of wound closure was derived by the following formula: (1−[current wound size/initial wound size])×100.

`COc1cccc(C=NCCN=Cc2cccc(OC)c2[O-])c1[O-].[Cl-].[Mn+3]` [EUK-134]: the “improvement of glucose metabolism in response to bolus injection of IGF-1” value in assay [1] is “about 20%”. In addition, in assay [2] (diabetic, TNF-α- or dexamethasone-exposed cells, EUK-134), the “reactive oxygen species (ROS) levels” value is given as “approximately restores normal ROS levels”. The “HSOS (oxidative stress)” value in assay [2] (fibroblasts with diabetic, inflammatory or hypercortisolemia phenotypes, ROS suppressors) is on record as “lessen the HSOS”. Also, in assay [3], the “impairment in key fibroblast functions (collagen synthesis, cell proliferation, migration, contraction)” value was “ameliorates”. The PI3K enzymatic activity entry in assay [4] is given as “partially restored”. Moreover, the carbonylated protein accumulation entry in assay [5] was “returned to approximately normal”. The wound healing entry in assay [6] (diabetic rats, treatment with EUK-134 and/or IGF-1) is listed as “heal as rapidly as those on control rats”. Moreover, the “healing rates of wounds” value in assay [6] (diabetic/hypercortisolemic rat wounds, antioxidant administered) is reported as “statistically indistinguishable from control rat wounds treated with IGF-1 alone”.

Values taken from patent US8637461B2, “Method of diagnosing and treating oxidative stress-impaired wound healing” (Kuwait University, priority 2011, dated 2014).
